Results on 9 compounds are retold here after ChEMBL document CHEMBL1201862, “PubChem BioAssay data set” (2004).

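Grown in 96-well plates, cells were treated for 48 hours with each compound at five concentrations. Insufficient inhibition: endpoint recorded as highest concentration tested. At the GI50, growth is halved.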 Active and inactive are the calls of the source. No stated cut-off is given here; in the data, active = GI50 up to about 1.1 µM and inactive = higher. A value given as a limit tells only on which side of the number the result lay.

Test systems include NCI-H23; MCF7; CAKI-1; SF-268; HCC 2998; SK-MEL-28; SN12C; U-251; ACHN; OVCAR-4; HL-60; IGROV-1; HCT-116; HOP-92; HT-29; M14; EKVX; T47D; SF-539; RXF 393.
Holding throughout (assay): growth of human tumour cells (NCI), 48 h

On to `Cc1nn(C(=O)c2ccc(Cl)cc2)c2c1C(c1ccc(O)cc1)SC(=N)N2` (stereo not given), for which the GI50 in the assay on NCI-H23, in the assay on MCF7, in the assay on CAKI-1, in the assay with SF-268, in the assay on HCC 2998 and in the assay with SK-MEL-28 was > 10 µM (inactive) throughout. Further, the GI50 with SN12C, in the assay on U-251, with ACHN, in the assay with OVCAR-4, with HL-60 and in the assay on IGROV-1 was > 10 µM (inactive) throughout. Moreover, the GI50 in the assay with HCT-116, in the assay with HOP-92, with HT-29, with M14, in the assay on EKVX and in the assay with T47D was > 10 µM (inactive) throughout. The GI50 in the assay on SF-539 and in the assay with RXF 393 was > 10 µM (inactive) throughout.
As to `COC1CCC(O)C(/C=C/[N+](=O)[O-])C1` (stereo not given), the GI50 in the assay on NCI-H23 was 3.91 µM (inactive); in the assay with MCF7, 2.88 µM (inactive); with CAKI-1, 16.2 µM (inactive); in the assay with SF-268, 3.37 µM (inactive); in the assay on HCC 2998, 1.7 µM (inactive); in the assay with SK-MEL-28 it was 13.4 µM (inactive). Also, the GI50 with SN12C was 2.8 µM (inactive); with U-251, 2.19 µM (inactive); in the assay on ACHN, 15.7 µM (inactive); in the assay on OVCAR-4, 14.8 µM (inactive); with HL-60, 1.8 µM (inactive); in the assay with IGROV-1 it was 1.66 µM (inactive). Also, the GI50 with HCT-116 is 1.93 µM (inactive); in the assay with HOP-92 it was 12.5 µM (inactive); with HT-29, 3.37 µM (inactive); in the assay on M14 it was 2.68 µM (inactive); with EKVX, 4.56 µM (inactive); in the assay on T47D, 11.3 µM (inactive). For the same compound, the GI50 with SF-539 is 4.4 µM (inactive); with RXF 393 it was 1.42 µM (inactive).
Regarding `O=C(Cc1nc2ccc(C(=O)c3ccccc3)cc2nc1O)C(=O)Nc1ccccc1[N+](=O)[O-]`, the GI50 was 42.2 µM (inactive) with NCI-H23; 50 µM (inactive) with MCF7; 34.8 µM (inactive) in the assay on CAKI-1; 87.7 µM (inactive) in the assay with SF-268; 37.2 µM (inactive) in the assay with HCC 2998; 94.8 µM (inactive) with SK-MEL-28. In addition, the GI50 in the assay with SN12C is > 100 µM (inactive); with U-251, 88.5 µM (inactive); with ACHN, 67.3 µM (inactive); in the assay on OVCAR-4, 32.4 µM (inactive); in the assay with HL-60, 40.3 µM (inactive); in the assay with IGROV-1, 40.8 µM (inactive). Also, the GI50 is 57 µM (inactive) with HCT-116; 65.9 µM (inactive) in the assay on HOP-92; 47.1 µM (inactive) in the assay on HT-29; 92 µM (inactive) in the assay with M14; 89.7 µM (inactive) with EKVX; 54.3 µM (inactive) with T47D. Also, the GI50 in the assay on SF-539 was > 100 µM (inactive); in the assay on RXF 393, 53.8 µM (inactive).
Turning to `CCCCCCCCCCCCCCCC(=O)OCC(C[As](=O)(O)O)OC(=O)CCCCCCCCCCCCCCC` (stereo not given), the GI50 in the assay with NCI-H23 is > 100 µM (inactive); with MCF7, > 100 µM (inactive); in the assay on CAKI-1 it was 97.3 µM (inactive); in the assay with SF-268 it was 68.9 µM (inactive); in the assay on HCC 2998, > 100 µM (inactive); in the assay with SK-MEL-28 it was > 100 µM (inactive). For the same compound, the GI50 is > 74.5 µM (inactive) with SN12C; > 65.6 µM (inactive) in the assay on U-251; > 71.6 µM (inactive) in the assay with ACHN; > 100 µM (inactive) in the assay with OVCAR-4; > 100 µM (inactive) in the assay on HL-60; > 100 µM (inactive) in the assay with IGROV-1. Further, the GI50 with HCT-116 was > 100 µM (inactive); with HOP-92 it was > 72.6 µM (inactive); in the assay on HT-29, > 100 µM (inactive); in the assay with M14, > 100 µM (inactive); in the assay on EKVX, > 100 µM (inactive); in the assay with T47D it was > 100 µM (inactive). In addition, the GI50 was > 100 µM (inactive) in the assay on SF-539 and > 68.1 µM (inactive) with RXF 393.
Regarding `Cc1cc(/N=C2\C=C(Nc3cc(C)on3)C(=O)c3ccccc32)no1`, the GI50 was 4.69 µM (inactive) in the assay with NCI-H23; 7.46 µM (inactive) in the assay with MCF7; > 85.9 µM (inactive) in the assay on CAKI-1; 36.9 µM (inactive) in the assay on SF-268; > 100 µM (inactive) in the assay on HCC 2998; 60.5 µM (inactive) in the assay on SK-MEL-28. Besides, the GI50 is > 80.9 µM (inactive) with SN12C; 30.1 µM (inactive) in the assay on U-251; > 64.3 µM (inactive) with ACHN; > 100 µM (inactive) with OVCAR-4; > 100 µM (inactive) with HL-60; 33.1 µM (inactive) in the assay on IGROV-1. For the same compound, the GI50 is 53.7 µM (inactive) with HCT-116; 19 µM (inactive) in the assay on HOP-92; 49.7 µM (inactive) in the assay on HT-29; 34.7 µM (inactive) with M14; > 66.2 µM (inactive) with EKVX; 47.3 µM (inactive) in the assay on T47D. Besides, the values for the GI50 with SF-539 and in the assay on RXF 393 were 31.6 µM (inactive) and 30.3 µM (inactive), respectively.
`Cc1cc(C)c2c(=N)c3ccccc3n(CCCCCCn3c4ccccc4c(=N)c4c(C)cc(C)nc43)c2n1`: the GI50 is 1.4 µM (inactive) with NCI-H23; 0.435 µM (active) in the assay with MCF7; 1.45 µM (inactive) with CAKI-1; 1.56 µM (inactive) with SF-268; 0.172 µM (active) with HCC 2998; 1.28 µM (inactive) in the assay on SK-MEL-28. For the same compound, the GI50 in the assay on SN12C is 1.5 µM (inactive); in the assay on U-251 it was 0.252 µM (active); with ACHN it was 1.55 µM (inactive); in the assay with OVCAR-4, 1.43 µM (inactive); in the assay with HL-60, 0.28 µM (active); in the assay with IGROV-1 it was 1.44 µM (inactive). Moreover, the GI50 in the assay on HCT-116 is 0.18 µM (active); with HOP-92, 1.58 µM (inactive); with HT-29, 0.462 µM (active); in the assay with M14 it was 1.85 µM (inactive); in the assay on EKVX, 1.77 µM (inactive); in the assay on T47D it was 1.92 µM (inactive). For the same compound, the GI50 is 1.54 µM (inactive) in the assay with SF-539 and 1.25 µM (inactive) in the assay with RXF 393.
In the case of `O=C1/C(=C2\SCC(=O)N2c2ccccc2)SC(=S)N1c1ccccc1`, the GI50 is 72.6 µM (inactive) in the assay with NCI-H23; 36.8 µM (inactive) with MCF7; 21.1 µM (inactive) in the assay with CAKI-1; 41.8 µM (inactive) in the assay with SF-268; 28.2 µM (inactive) in the assay with HCC 2998; 35.9 µM (inactive) with SK-MEL-28. The GI50 in the assay on SN12C was 25.6 µM (inactive); in the assay on U-251 it was 30.4 µM (inactive); with ACHN it was 26.2 µM (inactive); in the assay on OVCAR-4, 23.8 µM (inactive); in the assay with HL-60, 78.5 µM (inactive); with IGROV-1, 17.1 µM (inactive). The GI50 was 46.3 µM (inactive) in the assay on HCT-116; 23.3 µM (inactive) in the assay with HOP-92; 56.1 µM (inactive) in the assay with HT-29; > 100 µM (inactive) in the assay on M14; 30.3 µM (inactive) in the assay with EKVX; 51.2 µM (inactive) in the assay with T47D. Moreover, the GI50 with SF-539 is 26.4 µM (inactive); in the assay on RXF 393, 34.4 µM (inactive).
As to `CC(C)(C)NC1=NC(C(F)(F)F)(C(F)(F)F)NC(=O)N1`, the GI50 is > 100 µM (inactive) in the assay with NCI-H23; 37.8 µM (inactive) in the assay on MCF7; 46.1 µM (inactive) in the assay with CAKI-1; > 100 µM (inactive) in the assay on SF-268; 27.4 µM (inactive) with HCC 2998; 32.7 µM (inactive) in the assay with SK-MEL-28. The GI50 is 54.7 µM (inactive) in the assay with SN12C; 70.3 µM (inactive) in the assay with U-251; 39.7 µM (inactive) with ACHN; 36.3 µM (inactive) in the assay with OVCAR-4; 16.5 µM (inactive) with HL-60; 64.1 µM (inactive) in the assay on IGROV-1. Also, the GI50 in the assay with HCT-116 was 38.9 µM (inactive); in the assay on HOP-92, 20 µM (inactive); with HT-29 it was 36.9 µM (inactive); in the assay on M14, 44.5 µM (inactive); in the assay on EKVX, 84.1 µM (inactive); with T47D, 28.3 µM (inactive). For the same compound, the GI50 in the assay on SF-539 and in the assay on RXF 393 was > 100 µM (inactive) each time.
For the compound `CC(C)OC(=O)Nc1cccc(Cl)c1` [CHLORPROPHAM], the GI50 in the assay with NCI-H23, in the assay on MCF7, in the assay on CAKI-1, in the assay on SF-268, in the assay on HCC 2998 and in the assay on SK-MEL-28 was > 100 µM (inactive) in each case. For the same compound, the GI50 in the assay on SN12C is > 100 µM (inactive); in the assay with U-251, 87.1 µM (inactive); in the assay with ACHN, > 100 µM (inactive); in the assay with OVCAR-4, > 100 µM (inactive); with HL-60, > 100 µM (inactive); with IGROV-1, > 100 µM (inactive). The GI50 in the assay on HCT-116 is > 100 µM (inactive); in the assay with HOP-92, > 100 µM (inactive); with HT-29, 87.7 µM (inactive); in the assay with M14 it was > 100 µM (inactive); in the assay with EKVX, 63.1 µM (inactive); in the assay with T47D, 50.4 µM (inactive). The GI50 in the assay on SF-539 and in the assay on RXF 393 was > 100 µM (inactive) in each case.
